Experimental data published in ChEMBL document CHEMBL1201862, “PubChem BioAssay data set” (2004).
Calls of active or inactive are those of the source.

How the values were obtained:
cells [1] = assay type: functional, cell-based
[2] = target: Nucleotide-binding oligomerization domain-containing protein 2 (Homo sapiens, UniProt Q9HC29); assay: NOD2 signaling inhibitors, cell-based, luminescence, uHTS, HEK293 (AID 1566); assay type: functional
[3] = HepG2 cell cytotoxicity, dose response, cytotoxicity control for Shn3 inhibitor project, CellTiter-Glo, cherry-picked (AID 624134); assay type: functional, cell-based
HEK293 [4] = assay: NOD1 signaling inhibitors, primary screen, cell-based, luminescence, uHTS (AID 1578); assay type: functional; conditions: Homo sapiens
HEK293 [5] = assay: cells; assay type: functional, cell-based; conditions: Homo sapiens
HEK293 [6] = assay: NOD2 signaling inhibitors in MDP-stimulated cells, cell-based, uHTS, luminescence (AID 2001); assay type: functional; conditions: Homo sapiens
BJ [7] = assay: cytotoxicity toward BJ-TERT fibroblasts, dose response, cell-based, RAS-independent, luminescence (AID 1933); assay type: functional; conditions: Homo sapiens
[8] = cytotoxicity toward DRD oncogenic fibroblasts, dose response, cell-based, non-viral oncogenic, luminescence (AID 1934); assay type: functional; conditions: Homo sapiens
HEK293 [9] = assay: inhibitors of LMP1-driven NF-kB reporter, dose response, cell-based, HEK293, luciferase, cherry-pick (AID 588343); assay type: functional; conditions: Homo sapiens
BJ [10] = assay: cytotoxicity toward BJ-TERT-LT-ST fibroblasts, dose response, cell-based, RAS-independent, luminescence (AID 1935); assay type: functional; conditions: Homo sapiens;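 further: BJ fibroblasts immortalized with TERT plus LT and ST oncogenes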
HEK293 [11] = assay: cells; assay type: functional, cell-based; conditions: Homo sapiens; remark: listed apart in the source
INS1 = assay: beta cell apoptosis inhibitors, cytokine rescue, dose response, luminescence, retest (AID 449756); assay type: functional, cell-based; conditions: Rattus norvegicus;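 further: cell death triggered by IL-1 beta plus TNF-alpha plus IFN-gamma mixture; protective hits raise ATP signal compared with cytokine alone wells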
BJ [12] = assay: cells; assay type: functional, cell-based; conditions: Homo sapiens
[13] = Luminescence-based dose response cell-based high throughput screening assay for cytotoxic compounds using the IEC-6 intestinal epithelial cell line. [Related pubchem assays: 1858 (Summary AID.), 1825 (Counterscreen.), 1907 (Confirmation screen.)]; assay type: functional
cells [14] = assay type: functional, cell-based; remark: listed apart in the source
HEK293 [15] = assay: cells; assay type: functional, cell-based; conditions: Homo sapiens; remark: listed apart in the source
[16] = control 3'UTR Renilla luciferase suppression, dose response, counter-screen for Shn3 inhibitor project, cell-based, Clone20-Shn3RL, cherry-picked (AID 624133); assay type: functional
Nonstructural protein 1 = Nonstructural protein 1 (Influenza A virus, UniProt Q194T2); assay type: functional, Influenza A virus (A/California/07/2009(H1N1))
Sequence of Nonstructural protein 1 (Q194T2 whole entry): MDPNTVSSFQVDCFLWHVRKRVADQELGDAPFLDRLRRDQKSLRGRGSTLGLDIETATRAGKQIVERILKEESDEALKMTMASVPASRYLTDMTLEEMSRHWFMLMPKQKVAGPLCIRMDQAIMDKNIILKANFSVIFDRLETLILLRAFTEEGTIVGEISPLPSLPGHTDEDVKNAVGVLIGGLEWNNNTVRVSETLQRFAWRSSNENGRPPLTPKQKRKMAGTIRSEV

[17] = Shn3 3'UTR reporter inhibitors, dose response, cell-based, Clone20 osteoblasts, firefly luciferase, cherry-picked (AID 624132); assay type: functional;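 further: firefly luciferase luminescence from reporter carrying the Shn3 3'UTR in osteoblasts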
[18] = target: Voltage-gated inwardly rectifying potassium channel KCNH2 (Homo sapiens, UniProt Q12809); assay: hERG protection from proarrhythmic block, potency, dose response, cell-based, thallium flux (AID 2121); assay type: ADME
Sequence of Voltage-gated inwardly rectifying potassium channel KCNH2 (Q12809 whole entry): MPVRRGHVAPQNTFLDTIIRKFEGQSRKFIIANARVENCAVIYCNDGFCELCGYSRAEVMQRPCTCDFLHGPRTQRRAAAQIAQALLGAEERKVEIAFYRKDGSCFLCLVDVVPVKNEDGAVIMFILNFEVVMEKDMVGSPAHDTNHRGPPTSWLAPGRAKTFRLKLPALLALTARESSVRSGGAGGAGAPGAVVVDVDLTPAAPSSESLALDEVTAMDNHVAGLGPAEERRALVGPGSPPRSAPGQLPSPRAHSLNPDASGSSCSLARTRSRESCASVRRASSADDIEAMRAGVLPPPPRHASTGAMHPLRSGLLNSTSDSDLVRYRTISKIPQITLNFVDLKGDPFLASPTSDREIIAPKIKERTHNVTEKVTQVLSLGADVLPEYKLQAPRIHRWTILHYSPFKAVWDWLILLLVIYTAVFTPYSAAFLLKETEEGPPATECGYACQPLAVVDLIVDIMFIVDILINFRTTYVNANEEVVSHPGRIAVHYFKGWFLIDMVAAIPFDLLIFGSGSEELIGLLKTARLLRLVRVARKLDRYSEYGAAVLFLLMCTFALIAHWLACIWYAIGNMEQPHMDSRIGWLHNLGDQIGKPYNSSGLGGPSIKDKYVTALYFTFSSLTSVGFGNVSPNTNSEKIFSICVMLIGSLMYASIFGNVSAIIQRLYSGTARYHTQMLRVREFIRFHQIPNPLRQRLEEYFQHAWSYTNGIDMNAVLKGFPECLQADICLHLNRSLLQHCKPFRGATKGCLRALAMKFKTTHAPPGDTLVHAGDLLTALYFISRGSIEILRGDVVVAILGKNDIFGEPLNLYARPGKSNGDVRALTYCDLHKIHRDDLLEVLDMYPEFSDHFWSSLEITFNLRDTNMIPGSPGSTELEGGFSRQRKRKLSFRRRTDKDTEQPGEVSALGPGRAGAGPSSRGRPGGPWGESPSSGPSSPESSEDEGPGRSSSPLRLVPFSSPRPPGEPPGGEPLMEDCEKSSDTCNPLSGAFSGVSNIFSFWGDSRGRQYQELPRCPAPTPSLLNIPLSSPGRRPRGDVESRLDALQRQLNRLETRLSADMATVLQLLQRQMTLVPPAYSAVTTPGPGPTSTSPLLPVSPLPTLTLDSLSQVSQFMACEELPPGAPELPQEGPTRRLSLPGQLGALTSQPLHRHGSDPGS

Cytochrome P450 2C19 = Cytochrome P450 2C19 (Homo sapiens, UniProt P33261); assay: qHTS Assay for Inhibitors and Substrates of Cytochrome P450 2C19. [Related pubchem assays: 410 ]; assay type: ADME; conditions: read-out: Potency
Sequence of Cytochrome P450 2C19 (P33261 whole entry): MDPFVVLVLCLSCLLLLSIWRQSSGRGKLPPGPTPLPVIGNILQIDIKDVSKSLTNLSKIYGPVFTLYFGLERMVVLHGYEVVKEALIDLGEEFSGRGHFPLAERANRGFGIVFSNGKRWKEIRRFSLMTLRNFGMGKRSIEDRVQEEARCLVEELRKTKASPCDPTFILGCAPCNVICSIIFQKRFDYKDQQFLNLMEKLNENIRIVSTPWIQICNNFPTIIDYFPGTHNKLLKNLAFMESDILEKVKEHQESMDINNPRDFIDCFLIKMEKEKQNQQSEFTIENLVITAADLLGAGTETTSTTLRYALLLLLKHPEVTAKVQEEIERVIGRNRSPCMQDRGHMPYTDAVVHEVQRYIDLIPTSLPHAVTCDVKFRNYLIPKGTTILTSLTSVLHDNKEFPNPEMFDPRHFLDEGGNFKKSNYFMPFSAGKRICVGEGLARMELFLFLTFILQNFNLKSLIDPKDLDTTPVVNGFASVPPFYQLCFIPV

Cytochrome P450 2C9 = Cytochrome P450 2C9 (Homo sapiens, UniProt P11712); conditions: Potency
Sequence of Cytochrome P450 2C9 (P11712 whole entry): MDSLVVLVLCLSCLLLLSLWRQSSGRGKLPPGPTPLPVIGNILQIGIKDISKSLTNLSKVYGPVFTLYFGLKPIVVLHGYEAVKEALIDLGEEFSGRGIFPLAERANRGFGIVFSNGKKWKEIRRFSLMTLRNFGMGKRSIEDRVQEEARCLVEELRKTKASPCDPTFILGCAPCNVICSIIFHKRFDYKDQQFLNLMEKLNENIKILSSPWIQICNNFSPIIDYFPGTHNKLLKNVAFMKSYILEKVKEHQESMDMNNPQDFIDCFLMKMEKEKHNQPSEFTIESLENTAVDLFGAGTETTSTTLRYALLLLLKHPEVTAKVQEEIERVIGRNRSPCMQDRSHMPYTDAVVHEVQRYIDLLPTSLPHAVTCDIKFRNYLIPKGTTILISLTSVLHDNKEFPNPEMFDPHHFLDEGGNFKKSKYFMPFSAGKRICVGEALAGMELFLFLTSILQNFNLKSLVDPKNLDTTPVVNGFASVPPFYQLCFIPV

[19] = Luminescence Cell-Based Dose Confirmation to Identify Activators of 5'UTR Stem-Loop Driven Alpha-Synuclein mRNA Translation in H4 Neuroglioblastoma Cells. [Related pubchem assays: 1829 (Project Summary), 1814 (Primary HTS)]; assay type: functional
[20] = Luminescence Cell-Based Dose Response to Identify Activators of 5'UTR Stem-Loop Driven Prion Protein mRNA Translation in H4-C Neuroglioblastoma Cells. [Related pubchem assays: 1829 (Project Summary), 1814 (Primary HTS)]; assay type: functional
[21] = Luminescence Cell-Based Dose Response to Identify Activators of Luciferase Translation or Activity in H4-C Neuroglioblastoma Cells. [Related pubchem assays: 1829 (Project Summary), 1814 (Primary HTS)]; assay type: functional
[22] = Luminescence Cell-Based Dose Confirmation HTS to Identify Activators of 5'UTR Stem-Loop Driven Alpha-Synuclein mRNA Translation in H4 Neuroglioblastoma Cells. [Related pubchem assays: 1829 (Project Summary), 1814 (Primary HTS)]; assay type: functional
H4 = assay: Luminescence Cell-Based Dose Response HTS to Identify Activators of 5'UTR Stem-Loop Driven Prion Protein mRNA Translation in H4 Neuroglioblastoma Cells. [Related pubchem assays: 1829 (Project Summary), 1814 (Primary HTS)]; assay type: functional; conditions: Homo sapiens
Aminopeptidase N = target: T1, Aminopeptidase N (Plasmodium falciparum FcB1/Columbia, UniProt O96935); assay: P. falciparum M1AAP inhibitors, biochemical, fluorogenic H-Leu-NHMec substrate, 1536-well (AID 1445); design: species or system Plasmodium falciparum 3D7, 3D7
T1 sequence (O96935 whole entry): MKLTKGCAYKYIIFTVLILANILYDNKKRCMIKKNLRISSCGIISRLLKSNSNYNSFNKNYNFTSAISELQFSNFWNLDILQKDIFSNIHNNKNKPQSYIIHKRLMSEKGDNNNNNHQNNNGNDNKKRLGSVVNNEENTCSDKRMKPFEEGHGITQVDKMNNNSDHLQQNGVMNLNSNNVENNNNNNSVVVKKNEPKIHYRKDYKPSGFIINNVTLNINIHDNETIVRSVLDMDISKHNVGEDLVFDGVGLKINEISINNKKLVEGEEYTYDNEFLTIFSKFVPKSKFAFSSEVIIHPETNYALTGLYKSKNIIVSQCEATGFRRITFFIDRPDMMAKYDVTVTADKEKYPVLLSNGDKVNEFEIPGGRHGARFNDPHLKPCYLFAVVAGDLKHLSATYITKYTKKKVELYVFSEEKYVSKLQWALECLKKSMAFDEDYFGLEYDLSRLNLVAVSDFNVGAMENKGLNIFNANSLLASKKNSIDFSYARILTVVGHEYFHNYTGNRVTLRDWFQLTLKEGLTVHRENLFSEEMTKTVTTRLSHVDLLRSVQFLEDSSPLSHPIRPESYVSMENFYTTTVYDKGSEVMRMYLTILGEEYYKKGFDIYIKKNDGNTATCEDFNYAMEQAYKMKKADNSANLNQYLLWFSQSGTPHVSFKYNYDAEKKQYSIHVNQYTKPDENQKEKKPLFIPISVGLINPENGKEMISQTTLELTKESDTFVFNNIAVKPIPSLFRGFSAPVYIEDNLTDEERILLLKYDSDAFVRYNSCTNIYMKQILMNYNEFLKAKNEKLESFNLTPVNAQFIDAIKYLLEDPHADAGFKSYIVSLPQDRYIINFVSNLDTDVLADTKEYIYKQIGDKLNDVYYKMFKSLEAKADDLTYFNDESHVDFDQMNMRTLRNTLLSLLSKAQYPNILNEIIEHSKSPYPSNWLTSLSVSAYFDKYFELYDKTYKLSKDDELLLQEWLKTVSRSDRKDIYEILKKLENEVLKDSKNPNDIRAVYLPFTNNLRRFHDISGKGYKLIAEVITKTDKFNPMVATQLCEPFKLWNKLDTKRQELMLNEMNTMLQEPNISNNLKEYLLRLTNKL

Procathepsin L = Procathepsin L (Homo sapiens, UniProt P07711); assay: cathepsin L inhibitors, dose response, counter-screen for M1/M17 aminopeptidase inhibitor project, biochemical, QFRET, 1536-well (AID 2214)
Sequence of Procathepsin L (P07711 whole entry): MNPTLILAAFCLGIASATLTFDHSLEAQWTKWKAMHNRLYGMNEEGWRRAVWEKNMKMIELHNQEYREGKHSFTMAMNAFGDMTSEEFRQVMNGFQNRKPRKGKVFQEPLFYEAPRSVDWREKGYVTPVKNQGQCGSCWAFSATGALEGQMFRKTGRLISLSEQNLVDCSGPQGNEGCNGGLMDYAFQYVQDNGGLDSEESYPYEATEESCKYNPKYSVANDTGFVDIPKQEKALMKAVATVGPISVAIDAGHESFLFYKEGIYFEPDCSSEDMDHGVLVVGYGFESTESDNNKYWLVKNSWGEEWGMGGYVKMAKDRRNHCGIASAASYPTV

Aspartyl aminopeptidase = Aspartyl aminopeptidase (Plasmodium falciparum 3D7, UniProt Q8I2J3); assay: Counterscreen for inhibitors of M1 and M17 aminopeptidases: QFRET-based biochemical high throughput dose response assay for inhibitors of the Plasmodium falciparum M18 Aspartyl Aminopeptidase (PFM18AAP). [Related PubChem assays: 1619 (Screening assay (M17LAP inhibitors).), 1445 (Screening assay (M1AAP inhibitors).)]
Sequence of Aspartyl aminopeptidase (Q8I2J3 whole entry): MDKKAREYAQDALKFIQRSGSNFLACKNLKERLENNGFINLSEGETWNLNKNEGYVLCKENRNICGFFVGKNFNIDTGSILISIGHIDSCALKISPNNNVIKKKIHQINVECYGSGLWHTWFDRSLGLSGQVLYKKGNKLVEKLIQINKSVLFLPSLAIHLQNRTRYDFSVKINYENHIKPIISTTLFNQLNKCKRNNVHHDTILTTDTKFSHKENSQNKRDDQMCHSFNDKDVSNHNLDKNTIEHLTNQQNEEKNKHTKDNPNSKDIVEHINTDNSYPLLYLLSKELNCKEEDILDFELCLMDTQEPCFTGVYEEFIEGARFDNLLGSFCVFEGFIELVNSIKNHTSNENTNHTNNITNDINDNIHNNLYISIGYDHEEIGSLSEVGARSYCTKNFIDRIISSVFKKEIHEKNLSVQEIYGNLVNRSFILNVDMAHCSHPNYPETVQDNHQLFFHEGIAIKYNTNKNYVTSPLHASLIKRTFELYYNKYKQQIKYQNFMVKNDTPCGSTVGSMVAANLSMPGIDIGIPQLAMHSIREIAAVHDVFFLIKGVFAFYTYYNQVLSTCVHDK

Sequence of Nucleotide-binding oligomerization domain-containing protein 2 (Q9HC29 whole entry, the tested form may be a part): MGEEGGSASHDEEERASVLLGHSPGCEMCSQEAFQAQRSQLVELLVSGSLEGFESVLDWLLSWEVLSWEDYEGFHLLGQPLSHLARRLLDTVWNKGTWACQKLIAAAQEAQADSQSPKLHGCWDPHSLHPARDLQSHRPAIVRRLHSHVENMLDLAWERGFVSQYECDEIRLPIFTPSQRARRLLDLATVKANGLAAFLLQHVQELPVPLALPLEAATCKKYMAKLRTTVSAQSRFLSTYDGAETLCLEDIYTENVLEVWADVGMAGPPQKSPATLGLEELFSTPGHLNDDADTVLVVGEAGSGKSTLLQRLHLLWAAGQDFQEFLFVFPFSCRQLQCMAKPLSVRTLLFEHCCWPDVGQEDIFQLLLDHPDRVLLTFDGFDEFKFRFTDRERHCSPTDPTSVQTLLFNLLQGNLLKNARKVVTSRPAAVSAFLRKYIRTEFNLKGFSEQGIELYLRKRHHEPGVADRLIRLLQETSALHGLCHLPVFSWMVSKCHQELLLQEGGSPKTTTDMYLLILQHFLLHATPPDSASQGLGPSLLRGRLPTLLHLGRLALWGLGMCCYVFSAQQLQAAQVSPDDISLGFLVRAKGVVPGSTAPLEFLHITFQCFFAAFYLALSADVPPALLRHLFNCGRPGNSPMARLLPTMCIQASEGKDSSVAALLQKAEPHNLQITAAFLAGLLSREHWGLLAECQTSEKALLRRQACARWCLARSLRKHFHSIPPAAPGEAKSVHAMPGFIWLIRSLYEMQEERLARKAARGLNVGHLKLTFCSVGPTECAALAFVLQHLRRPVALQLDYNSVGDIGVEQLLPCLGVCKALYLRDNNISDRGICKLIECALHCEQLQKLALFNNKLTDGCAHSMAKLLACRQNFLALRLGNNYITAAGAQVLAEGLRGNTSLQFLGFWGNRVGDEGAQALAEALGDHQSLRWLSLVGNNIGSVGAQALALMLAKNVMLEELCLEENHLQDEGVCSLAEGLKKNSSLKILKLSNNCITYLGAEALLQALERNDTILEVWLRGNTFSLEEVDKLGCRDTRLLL

CC(=O)NC(c1cccc([N+](=O)[O-])c1)c1ccc2cccnc2c1O (stereo not given)
EC50 (cells [1]): 4.94 µM (active) | EC50 [2]: > 20 µM (inactive) | AC50 [3]: 0.887 µM (active) | EC50 (HEK293 [4]): > 20 µM (inactive) | IC50 (HEK293 [5]): > 20 µM (inactive) | IC50 (HEK293 [6]): > 20 µM (inactive) | EC50 (BJ [7]): 1.7 µM (inconclusive) | EC50 [8]: 1.96 µM (inconclusive) | AC50 (HEK293 [9]): 4.67 µM (active) | EC50 (BJ [10]): 7.23 µM (inconclusive) | IC50 (HEK293 [11]): > 20 µM (inactive) | AC50 (INS1): 0.521 µM (active) | EC50 (BJ [12]): 10.7 µM (active) | IC50 [13]: 1.35 µM (active) | EC50 (cells [14]): > 350 µM (not active) | IC50 (HEK293 [15]): 19.8 µM (active) | AC50 [16]: > 70 µM (inactive) | IC50 (Nonstructural protein 1): 9.19 µM (active) | AC50 [17]: 0.889 µM (active)

CCOC(=O)N1CCN(C(=O)c2ccc(CN(c3ccc(C)c(C)c3)S(C)(=O)=O)cc2)CC1
EC50 [18]: 9.85 µM (active)

CC(C)C[C@@H](CC(=O)N[C@@H](CCC(=O)O)CC(=O)O)NC(=O)[C@@H]1CNCC[C@H]1NC(=O)C[C@H](CCCN)NC(=O)C[C@H](CO)NC(=O)[C@@H]1CNCC[C@H]1N
AC50 (Cytochrome P450 2C19): 31.6 µM (inconclusive) | AC50 (Cytochrome P450 2C9): 25.1 µM (inconclusive)

Cc1cc(-c2nnc(S)o2)c(C)n1-c1ccccc1
EC50 [19]: 1.19 µM (active) | EC50 [20]: 2.02 µM (active) | EC50 [21]: > 12 µM (not active) | EC50 [22]: < 0.1 µM (active) | EC50 (H4): 75.3 µM (active)

COc1ccc(OC)c(/C=C2\SC(=S)N(C(C(=O)O)c3ccccc3)C2=O)c1 (stereo not given)
IC50 (Aminopeptidase N): 12.1 µM (active) | IC50 (Procathepsin L): > 59.6 µM (not active) | IC50 (Aspartyl aminopeptidase): > 73.5 µM (not active)
